Reference: PubChem BioAssay AID1963868 (Molecular Pharmacology Branch, DTP, NCI, 2024)

Tested on: KRAS PDC tumor spheroids (HUVEC+MSC), viability
Test: Anticancer human tumor 254851-301-R-J1-PDC patient-derived colon carcinoma cell line growth inhibition [KRAS2]
Settings: for IC50: curve of first compound; for viability, T/C: stronger effect = lower value
Method in brief: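 KRAS-mutant tumor cells were grown as spheroids with HUVEC endothelial cells and human MSCs as stroma. Targeted agents were tested alone and with KRAS pathway inhibitors. Doses started at or near clinical Cmax, or 10 microM, descending half-log.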
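Further: spheroids exposed to compounds for seven days before readout.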
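Wherever viability, T/C is given: 100% = DMSO vehicle control luminescence of the spheroids.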

For `CC1OCC2(CCN(c3cnc(Sc4ccnc(N)c4Cl)c(N)n3)CC2)C1N` (stereo not given) + COc1cc2nc(C)nc(NC(C)c3cc(N)cc(C(F)(F)F)c3)c2cc1OC1CCOC1, the IC50 (second compound 0.1 µM) was > 10 µM, the IC50 (second compound 0.316 µM) was > 10 µM and the IC50 (second compound 1 µM) was > 10 µM. The IC50 (second compound 3.16 µM) was > 10 µM, the IC50 (second compound 10 µM) was > 10 µM and the viability, T/C (second compound 0.1 µM, first compound 0.0316 µM) was 118%. The viability, T/C (second compound 0.1 µM, first compound 0.1 µM) was 102%, the viability, T/C (second compound 0.1 µM, first compound 0.316 µM) was 91.7% and the viability, T/C (second compound 0.1 µM, first compound 1 µM) was 78.3%. The viability, T/C (second compound 0.1 µM, first compound 3.16 µM) was 82.6%, the viability, T/C (second compound 0.1 µM, first compound 10 µM) was 75.2% and the viability, T/C (second compound 0.316 µM, first compound 0.0316 µM) was 105%. It also gave a viability, T/C (second compound 0.316 µM, first compound 0.1 µM) of 99.9%, a viability, T/C (second compound 0.316 µM, first compound 0.316 µM) of 107% and a viability, T/C (second compound 0.316 µM, first compound 1 µM) of 80%. For the same molecule, the viability, T/C (second compound 0.316 µM, first compound 3.16 µM) was 80.7%, the viability, T/C (second compound 0.316 µM, first compound 10 µM) was 76.7% and the viability, T/C (second compound 1 µM, first compound 0.0316 µM) was 98.7%. It also gave a viability, T/C (second compound 1 µM, first compound 0.1 µM) of 109%, a viability, T/C (second compound 1 µM, first compound 0.316 µM) of 103% and a viability, T/C (second compound 1 µM, first compound 1 µM) of 78.4%. The viability, T/C (second compound 1 µM, first compound 3.16 µM) was 78.6%, the viability, T/C (second compound 1 µM, first compound 10 µM) was 70.3% and the viability, T/C (second compound 3.16 µM, first compound 0.0316 µM) was 83.8%. It also gave a viability, T/C (second compound 3.16 µM, first compound 0.1 µM) of 87.8%, a viability, T/C (second compound 3.16 µM, first compound 0.316 µM) of 78.6% and a viability, T/C (second compound 3.16 µM, first compound 1 µM) of 69.8%. For the same molecule, the viability, T/C (second compound 3.16 µM, first compound 3.16 µM) was 80%, the viability, T/C (second compound 3.16 µM, first compound 10 µM) was 62.8% and the viability, T/C (second compound 10 µM, first compound 0.0316 µM) was 76.4%. The viability, T/C (second compound 10 µM, first compound 0.1 µM) was 82.5%, the viability, T/C (second compound 10 µM, first compound 0.316 µM) was 70.9% and the viability, T/C (second compound 10 µM, first compound 1 µM) was 72%. For the same molecule, the viability, T/C (second compound 10 µM, first compound 3.16 µM) was 64.4% and the viability, T/C (second compound 10 µM, first compound 10 µM) was 64.3%.
